In PubChem BioAssay (NCI) one finds TGI data, which are given here for seven compounds.

Test systems include OVCAR-3 ovarian; 786-0 renal; COLO 205 colon; MDA-MB-435; HOP-62 NSCLC; NCI/ADR-RES ovarian; RPMI-8226 leukemia; OVCAR-5 ovarian; A498 renal; MALME-3M melanoma; SF-539 CNS; HT29 colon; A549 NSCLC; NCI-H460 lung; MDA-MB-231 breast; SN12C renal; HS 578T breast; T-47D breast; HCT-116 colon; NCI-H522 lung.
Common to all, as to test: NCI-60 cell line screen, 48 h

Molecules are shown by their SMILES.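 48-hour exposure; five concentrations; linearly interpolated endpoints. TGI denotes the concentration required for complete inhibition of growth.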

Turning to `CC(=O)OCC1OC(O[C@@H]2C[C@H]3C(C)(C)[C@H](OC(C)=O)CC[C@]3(C)[C@H]3CC[C@@]45C[C@H](O)C[C@H](C)[C@@H]4CC=C5[C@@]32C)C(O)C(O)C1O` (stereo not given in full), the TGI in the assay on OVCAR-3 ovarian is 10.6 µM; with 786-0 renal it was 12.8 µM; with COLO 205 colon, 3.28 µM; in the assay with MDA-MB-435, 11.2 µM; with HOP-62 NSCLC, 23.8 µM; with NCI/ADR-RES ovarian, 32.9 µM. In addition, the TGI in the assay on RPMI-8226 leukemia turned out to be 6.02 µM; with OVCAR-5 ovarian, 6.42 µM; with A498 renal, 15.8 µM; with MALME-3M melanoma, 20.3 µM; in the assay on SF-539 CNS it was 19.2 µM; in the assay on HT29 colon it was 3.7 µM. Moreover, the TGI with A549 NSCLC was found to be 16.9 µM; in the assay with NCI-H460 lung, 12.5 µM; in the assay on MDA-MB-231 breast, 11.6 µM; in the assay with SN12C renal, 15.5 µM; in the assay with HS 578T breast, 18.2 µM; with T-47D breast, 13.7 µM. Further, the figures for the TGI in the assay with HCT-116 colon and in the assay with NCI-H522 lung were 4.85 µM and 9.28 µM, respectively.

As to `Cc1cc2c(cc1C)C(=O)c1ncccc1C2=O`, the TGI in the assay on OVCAR-3 ovarian was 9.65 µM; in the assay with 786-0 renal, greater than 100 µM; in the assay with COLO 205 colon, 82.4 µM; in the assay with MDA-MB-435 it was 34.4 µM; with HOP-62 NSCLC, greater than 100 µM; in the assay on NCI/ADR-RES ovarian it was 70.8 µM. The TGI in the assay with RPMI-8226 leukemia is greater than 100 µM; with OVCAR-5 ovarian, greater than 100 µM; with A498 renal, greater than 100 µM; in the assay with MALME-3M melanoma, 52.9 µM; in the assay with SF-539 CNS, 90 µM; in the assay with HT29 colon, greater than 100 µM. In addition, the TGI in the assay with A549 NSCLC is greater than 100 µM; in the assay with NCI-H460 lung, greater than 100 µM; in the assay on MDA-MB-231 breast it was 67.1 µM; in the assay with SN12C renal, greater than 100 µM; in the assay with HS 578T breast, greater than 100 µM; in the assay on T-47D breast it was greater than 100 µM. The TGI with HCT-116 colon came to 61.1 µM; in the assay with NCI-H522 lung, 43.9 µM.

On to `COC(OC)C1(c2ccccc2)Oc2ccccc2C1=O` (stereo not given), for which the TGI in the assay with OVCAR-3 ovarian, in the assay with 786-0 renal, in the assay with COLO 205 colon, with MDA-MB-435, in the assay on HOP-62 NSCLC and in the assay with NCI/ADR-RES ovarian was greater than 100 µM in each case. Moreover, the TGI with RPMI-8226 leukemia, with OVCAR-5 ovarian, in the assay on A498 renal, with MALME-3M melanoma, with SF-539 CNS and in the assay with HT29 colon was greater than 100 µM throughout. Besides, the TGI in the assay with A549 NSCLC, with NCI-H460 lung, in the assay on MDA-MB-231 breast, in the assay with SN12C renal, in the assay with HS 578T breast and with T-47D breast was greater than 100 µM in each case. The TGI with HCT-116 colon and in the assay on NCI-H522 lung was greater than 100 µM each time.

Regarding `COC(=O)C1=C(O)C(C(=O)OC)[C@]2(O)[C@H](C(=O)OC)[C@H]1C[C@@H](c1ccccc1OC)[C@H]2C(=O)OC` (stereo not given in full), the TGI with OVCAR-3 ovarian was found to be 35.4 µM; in the assay with 786-0 renal, 20.4 µM; with COLO 205 colon, 13.3 µM; in the assay on MDA-MB-435, 9.79 µM; in the assay on HOP-62 NSCLC, 39.1 µM; in the assay with NCI/ADR-RES ovarian it was 8.89 µM. The TGI in the assay with RPMI-8226 leukemia was 8.82 µM; with OVCAR-5 ovarian, 16.4 µM; in the assay on A498 renal, 17.4 µM; in the assay with MALME-3M melanoma, 13.5 µM; in the assay on SF-539 CNS, greater than 23.7 µM; with HT29 colon it was 14.6 µM. The TGI in the assay on A549 NSCLC was 21.7 µM; in the assay on NCI-H460 lung, greater than 41.8 µM; with MDA-MB-231 breast it was 29.7 µM; with SN12C renal, 17.4 µM; in the assay with HS 578T breast, 11 µM; in the assay with T-47D breast it was greater than 76.1 µM. Also, the results for the TGI with HCT-116 colon and with NCI-H522 lung were 12.9 µM and 5 µM, respectively.

Take `COc1cccc2c3cccc(OC)c3c3[nH]cnc3c12`: the TGI amounted to 31.7 µM in the assay with OVCAR-3 ovarian; 2.98 µM in the assay with 786-0 renal; 30.1 µM in the assay on COLO 205 colon; 4.1 µM in the assay with MDA-MB-435; 35.2 µM in the assay on HOP-62 NSCLC; 9.42 µM in the assay with NCI/ADR-RES ovarian. Further, the TGI in the assay with RPMI-8226 leukemia worked out at 5.67 µM; in the assay with OVCAR-5 ovarian it was 10 µM; with A498 renal it was 33.4 µM; with MALME-3M melanoma, 7.81 µM; with SF-539 CNS, 2.68 µM; in the assay on HT29 colon, 3 µM. The TGI in the assay on A549 NSCLC turned out to be 3.08 µM; with NCI-H460 lung, 3.26 µM; with MDA-MB-231 breast it was 4.11 µM; in the assay on SN12C renal, 22.3 µM; in the assay with HS 578T breast, 20.5 µM; in the assay with T-47D breast, 40.2 µM. The TGI with HCT-116 colon is 3.1 µM; in the assay with NCI-H522 lung, 2.88 µM.

For `Nc1ccc(-c2nc3cc(F)ccc3s2)cc1Br`, the TGI in the assay on OVCAR-3 ovarian, in the assay on 786-0 renal, in the assay with COLO 205 colon, with MDA-MB-435, with HOP-62 NSCLC and in the assay on NCI/ADR-RES ovarian was greater than 100 µM each time. The TGI in the assay on RPMI-8226 leukemia was greater than 100 µM; in the assay on OVCAR-5 ovarian, greater than 100 µM; with A498 renal, greater than 100 µM; with MALME-3M melanoma it was greater than 100 µM; with SF-539 CNS, greater than 71.4 µM; in the assay on HT29 colon it was greater than 100 µM. For the same compound, the TGI is greater than 100 µM in the assay with A549 NSCLC; greater than 46 µM in the assay with NCI-H460 lung; greater than 73.2 µM in the assay with MDA-MB-231 breast; greater than 100 µM in the assay on SN12C renal; greater than 100 µM in the assay on HS 578T breast; greater than 100 µM in the assay with T-47D breast. Further, the TGI in the assay with HCT-116 colon and in the assay with NCI-H522 lung was greater than 100 µM each time.

Regarding `CCOC(=O)N/N=C/C1=NN(C(=O)OCC)S(=O)C1C` (stereo not given), the TGI with OVCAR-3 ovarian, in the assay on 786-0 renal, with COLO 205 colon, in the assay with MDA-MB-435, in the assay with HOP-62 NSCLC and in the assay on NCI/ADR-RES ovarian was greater than 100 µM in each case. Moreover, the TGI in the assay on RPMI-8226 leukemia, in the assay on OVCAR-5 ovarian, with A498 renal, in the assay on MALME-3M melanoma, with SF-539 CNS and in the assay on HT29 colon was greater than 100 µM in each case. Moreover, the TGI with A549 NSCLC, in the assay on NCI-H460 lung, with MDA-MB-231 breast, in the assay with SN12C renal, in the assay on HS 578T breast and in the assay on T-47D breast was greater than 100 µM throughout. Further, the TGI in the assay with HCT-116 colon and in the assay on NCI-H522 lung was greater than 100 µM throughout.
